Measurements reported in paper PMC10746543, “Design principles for cyclin K molecular glue degraders” (Nature Chemical Biology, 2023).
“And” between values parts separate entries of the source, which are not always exact repeats. Equal values may be shown once. Read-outs that look alike come from different tables or passages of the source.

Key:
CDK13 = molecular target: T1, CDK13 (Homo sapiens, UniProt Q14004+Q16531); assay: Label-free quantitative mass spectrometry in MDA-MB-231 cells, CDK13; type: cell-based
T1 construct: endogenous in cells; host or cells: MDA-MB-231
Experimental: (§1) MDA-MB-231 cells were treated with DMSO or a cyclin K degrader compound at 1 µM for 5 h. Cells were collected by centrifugation and washed with phosphate-buffered saline before snap freezing in liquid nitrogen. Cells were lysed by addition of lysis buffer (8 M urea, 50 mM NaCl, 50 mM 4-(2-hydroxyethyl)-1-piperazineethanesulfonic acid (EPPS) pH 8.5, and protease and phosphatase inhibitors) and homogenization by bead beating (BioSpec) for three repeats of 30 s at 2,400 rpm. Bradford assay was used to determine the final protein concentration in the clarified cell lysate. Then 50 µg of protein for each sample was reduced, alkylated and precipitated using methanol/chloroform as previously described, and the resulting washed precipitated protein was allowed to air dry. Precipitated protein was resuspended in 4 M urea, 50 mM HEPES pH 7.4, followed by dilution to 1 M urea with the addition of 200 mM EPPS, pH 8. Proteins were first digested with LysC (1:50; enzyme:protein) for 12 h at room temperature. The LysC digestion was diluted to 0.5 M urea with 200 mM EPPS pH 8 followed by digestion with trypsin (1:50; enzyme:protein) for 6 h at 37 °C. Sample digests were acidified with formic acid to a pH of 2–3 before desalting using C18 solid phase extraction plates (SOLA, Thermo Fisher Scientific). Desalted peptides were dried in a vacuum-centrifuged and reconstituted in 0.1% formic acid for liquid chromatography–mass spectrometry analysis.
(§2) Data were collected using a TimsTOF Pro2 (Bruker Daltonics) coupled to a nanoElute LC pump (Bruker Daltonics) via a CaptiveSpray nano-electrospray source. Peptides were separated on a reversed-phase C18 column (25 cm × 75 µm inner diameter, […], IonOpticks) containing an integrated captive spray emitter. Peptides were separated using a 50 min gradient of 2–30% buffer B (acetonitrile in 0.1% formic acid) with a flow rate of 250 nl min^−1 and column temperature maintained at 50 °C.
(§3) Data-dependent acquisition (DDA) was performed in Parallel Accumulation-Serial Fragmentation (PASEF) mode to determine effective ion mobility windows for downstream diaPASEF data collection. The ddaPASEF parameters included: 100% duty cycle using accumulation and ramp times of 50 ms each, one Trapped Ion Mobility Spectrometry(TIMS)-MS scan and ten PASEF ramps per acquisition cycle. The TIMS-MS survey scan was acquired between 100 m/z and 1,700 m/z and 1/K0 of 0.7–1.3 V s cm^−2. Precursors with one to five charges were selected, and those that reached an intensity threshold of 20,000 arbitrary units were actively excluded for 0.4 min. The quadrupole isolation width was set to 2 m/z for m/z < 700 and 3 m/z for m/z > 800, with the m/z between 700 m/z and 800 m/z being interpolated linearly. […] To perform diaPASEF, the precursor distribution in the DDA m/z-ion mobility plane was used to design an acquisition scheme for data-independent acquisition (DIA) data collection that included two windows in each 50 ms diaPASEF scan. Data were acquired using 16 of these 25 Da precursor double window scans (creating 32 windows) that covered the diagonal scan line for doubly and triply charged precursors, with singly charged precursors able to be excluded by their position in the m/z-ion mobility plane. These precursor isolation windows were defined between 400 m/z and 1,200 m/z and 1/K0 of 0.7–1.3 V s cm^−2.
(§4) DirectDIA mode includes first extracting the DIA data into a collection of MS2 spectra which are searched using Spectronaut’s Pulsar search engine. The search results are then used to generate a spectral library which is then employed for the targeted analysis of the DIA data. MS/MS spectra were searched against a Swissprot human database (January 2021). Database search criteria largely followed the default settings for directDIA including: tryptic with two missed cleavages, fixed carbomidomethylation of cysteine, and variable oxidation of methionine and acetylation of protein N-termini and precursor Q-value (FDR) cut-off of 0.01. […]

HEK293T cells = assay: Drug sensitivity assay (CellTiter-Glo viability) with or without MLN4924 pretreatment; type: cell-based, human; details: for EC50: Homo sapiens, HEK-293T
Procedure, shortened: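 HEK293T–Cas9, 0.15 × 10^6 ml^−1; pretreat DMSO vs 100 nM MLN4924; drugs dispensed after 2 h; 3 d exposure; CellTiter-Glo; viability vs DMSO control.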

CDK12 = molecular target: T2, CDK12 (Homo sapiens, UniProt Q16531+Q9NYV4); assay: Label-free quantitative mass spectrometry in MDA-MB-231 cells, CDK12; type: cell-based
T2 construct: endogenous in cells; host or cells: MDA-MB-231
T2 sequence (Q9NYV4 whole entry): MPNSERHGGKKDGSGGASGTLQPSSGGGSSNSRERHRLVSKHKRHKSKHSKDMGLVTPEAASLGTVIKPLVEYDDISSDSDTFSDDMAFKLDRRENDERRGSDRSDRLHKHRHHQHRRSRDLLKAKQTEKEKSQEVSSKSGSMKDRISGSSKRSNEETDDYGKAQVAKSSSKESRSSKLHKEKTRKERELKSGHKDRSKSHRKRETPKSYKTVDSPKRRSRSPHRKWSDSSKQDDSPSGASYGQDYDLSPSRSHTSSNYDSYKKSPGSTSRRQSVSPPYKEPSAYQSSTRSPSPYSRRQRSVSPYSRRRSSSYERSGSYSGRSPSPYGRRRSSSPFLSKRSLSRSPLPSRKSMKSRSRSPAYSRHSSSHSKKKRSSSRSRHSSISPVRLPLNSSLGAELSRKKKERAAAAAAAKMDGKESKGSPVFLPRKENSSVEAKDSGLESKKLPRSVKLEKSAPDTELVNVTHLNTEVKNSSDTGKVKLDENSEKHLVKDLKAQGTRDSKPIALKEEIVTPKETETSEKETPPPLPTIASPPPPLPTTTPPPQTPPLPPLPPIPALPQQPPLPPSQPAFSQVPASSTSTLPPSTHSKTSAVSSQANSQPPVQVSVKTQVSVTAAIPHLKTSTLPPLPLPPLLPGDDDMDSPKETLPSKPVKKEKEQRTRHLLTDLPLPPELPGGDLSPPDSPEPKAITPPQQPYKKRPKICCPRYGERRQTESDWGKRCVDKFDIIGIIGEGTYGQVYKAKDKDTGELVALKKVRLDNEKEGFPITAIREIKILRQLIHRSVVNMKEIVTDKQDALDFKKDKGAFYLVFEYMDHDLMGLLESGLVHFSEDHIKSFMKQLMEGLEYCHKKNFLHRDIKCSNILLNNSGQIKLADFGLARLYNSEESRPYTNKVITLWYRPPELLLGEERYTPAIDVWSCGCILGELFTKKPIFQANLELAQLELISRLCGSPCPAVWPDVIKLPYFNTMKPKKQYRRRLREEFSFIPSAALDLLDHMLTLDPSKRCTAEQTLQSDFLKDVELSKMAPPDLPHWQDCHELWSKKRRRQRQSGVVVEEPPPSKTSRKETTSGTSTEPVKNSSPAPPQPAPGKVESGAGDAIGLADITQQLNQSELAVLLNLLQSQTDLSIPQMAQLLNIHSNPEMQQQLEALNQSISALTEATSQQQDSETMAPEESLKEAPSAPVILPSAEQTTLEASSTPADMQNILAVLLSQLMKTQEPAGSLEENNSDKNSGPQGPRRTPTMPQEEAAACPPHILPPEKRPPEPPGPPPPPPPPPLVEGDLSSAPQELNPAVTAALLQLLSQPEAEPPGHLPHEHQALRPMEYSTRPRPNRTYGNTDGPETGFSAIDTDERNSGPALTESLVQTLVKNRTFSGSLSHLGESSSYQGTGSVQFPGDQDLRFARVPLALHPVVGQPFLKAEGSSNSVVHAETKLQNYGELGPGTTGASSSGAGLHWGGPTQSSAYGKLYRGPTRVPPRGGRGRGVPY
T2 sequence (O75909 whole entry partner): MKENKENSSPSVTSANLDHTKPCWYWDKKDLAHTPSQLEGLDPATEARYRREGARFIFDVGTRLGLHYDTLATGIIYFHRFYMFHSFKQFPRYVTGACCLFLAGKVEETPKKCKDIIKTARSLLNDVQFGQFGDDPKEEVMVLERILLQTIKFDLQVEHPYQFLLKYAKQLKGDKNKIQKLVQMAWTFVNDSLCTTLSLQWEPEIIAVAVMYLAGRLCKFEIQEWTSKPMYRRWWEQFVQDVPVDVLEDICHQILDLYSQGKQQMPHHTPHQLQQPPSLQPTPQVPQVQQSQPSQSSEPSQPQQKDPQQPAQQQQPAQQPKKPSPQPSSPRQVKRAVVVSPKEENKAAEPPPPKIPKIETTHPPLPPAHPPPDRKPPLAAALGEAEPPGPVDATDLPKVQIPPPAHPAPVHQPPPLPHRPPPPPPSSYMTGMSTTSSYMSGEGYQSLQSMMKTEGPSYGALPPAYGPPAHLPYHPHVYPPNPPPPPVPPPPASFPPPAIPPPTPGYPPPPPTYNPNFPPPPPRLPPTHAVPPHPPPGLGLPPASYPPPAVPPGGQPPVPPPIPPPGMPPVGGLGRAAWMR
T2 sequence (Q16531 2-1140 limits assumed): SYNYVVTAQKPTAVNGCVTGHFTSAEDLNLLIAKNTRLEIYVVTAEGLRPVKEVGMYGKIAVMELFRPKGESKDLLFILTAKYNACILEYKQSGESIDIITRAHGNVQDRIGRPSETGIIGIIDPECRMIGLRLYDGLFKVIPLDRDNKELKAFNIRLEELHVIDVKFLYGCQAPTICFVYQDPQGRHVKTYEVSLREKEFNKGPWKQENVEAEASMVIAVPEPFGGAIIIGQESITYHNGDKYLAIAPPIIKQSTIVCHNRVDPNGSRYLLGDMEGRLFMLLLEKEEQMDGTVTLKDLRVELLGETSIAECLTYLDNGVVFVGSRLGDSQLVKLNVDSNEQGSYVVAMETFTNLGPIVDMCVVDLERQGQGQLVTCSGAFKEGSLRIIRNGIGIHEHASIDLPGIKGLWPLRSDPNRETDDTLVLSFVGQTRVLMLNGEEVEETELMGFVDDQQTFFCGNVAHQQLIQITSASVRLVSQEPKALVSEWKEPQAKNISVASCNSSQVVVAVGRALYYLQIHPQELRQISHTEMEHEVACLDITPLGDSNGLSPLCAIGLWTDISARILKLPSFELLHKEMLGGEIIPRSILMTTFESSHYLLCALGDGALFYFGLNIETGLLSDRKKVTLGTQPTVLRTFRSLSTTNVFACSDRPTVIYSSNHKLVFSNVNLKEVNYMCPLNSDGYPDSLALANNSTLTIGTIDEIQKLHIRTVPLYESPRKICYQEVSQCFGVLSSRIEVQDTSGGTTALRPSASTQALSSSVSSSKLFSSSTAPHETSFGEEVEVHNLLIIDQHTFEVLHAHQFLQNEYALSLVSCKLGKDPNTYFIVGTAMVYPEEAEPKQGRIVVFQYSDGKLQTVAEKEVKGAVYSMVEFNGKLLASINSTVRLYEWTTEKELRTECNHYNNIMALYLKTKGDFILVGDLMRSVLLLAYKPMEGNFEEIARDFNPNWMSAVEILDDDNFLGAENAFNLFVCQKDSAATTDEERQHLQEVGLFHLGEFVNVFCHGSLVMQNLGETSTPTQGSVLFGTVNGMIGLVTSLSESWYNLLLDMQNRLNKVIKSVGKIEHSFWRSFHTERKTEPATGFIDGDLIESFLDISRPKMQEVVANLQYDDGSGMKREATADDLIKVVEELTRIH
Experimental: as §1, §2, §3, §4

CDK12–cyclin K and DDB1 = molecular target: T3, CDK12–cyclin K and DDB1 (Homo sapiens, UniProt Q16531+Q9NYV4, K965R); assay: TR-FRET ternary complex formation assay (compound titration); type: binding; details: for TR-FRET signal at compound concentration: replicate titrations
T3 construct: His6–CDK12 (a.a. 713–1,052); full-length or beta-propeller B domain deletion (ΔBPB: a.a. 396–705 deleted) constructs of His6–DDB1ΔBPB, StrepII–Avi–DDB1, or His6–Spy–DDB1; made in house; host or cells: Trichoplusia ni High Five insect cells (baculovirus)
T3 sequence (Q9NYV4 713-1052 K965R): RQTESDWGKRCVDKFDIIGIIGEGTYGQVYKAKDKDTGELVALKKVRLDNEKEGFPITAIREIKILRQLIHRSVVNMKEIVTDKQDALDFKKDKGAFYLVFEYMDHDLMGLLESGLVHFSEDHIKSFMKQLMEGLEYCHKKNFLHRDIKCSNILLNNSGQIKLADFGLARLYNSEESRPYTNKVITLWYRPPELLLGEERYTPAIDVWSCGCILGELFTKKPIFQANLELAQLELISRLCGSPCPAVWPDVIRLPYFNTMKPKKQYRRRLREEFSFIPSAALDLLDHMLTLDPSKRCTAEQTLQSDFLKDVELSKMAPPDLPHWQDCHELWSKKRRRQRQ
T3 sequence (O75909 1-267 partner): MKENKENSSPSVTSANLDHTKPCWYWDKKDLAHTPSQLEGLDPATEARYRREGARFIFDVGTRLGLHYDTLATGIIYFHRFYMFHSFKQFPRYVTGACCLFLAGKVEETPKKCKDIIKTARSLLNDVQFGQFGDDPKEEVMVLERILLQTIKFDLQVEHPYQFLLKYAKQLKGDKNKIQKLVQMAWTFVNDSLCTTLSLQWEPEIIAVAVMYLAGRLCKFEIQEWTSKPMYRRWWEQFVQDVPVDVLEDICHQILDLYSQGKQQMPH
T3 sequence (Q16531 whole entry): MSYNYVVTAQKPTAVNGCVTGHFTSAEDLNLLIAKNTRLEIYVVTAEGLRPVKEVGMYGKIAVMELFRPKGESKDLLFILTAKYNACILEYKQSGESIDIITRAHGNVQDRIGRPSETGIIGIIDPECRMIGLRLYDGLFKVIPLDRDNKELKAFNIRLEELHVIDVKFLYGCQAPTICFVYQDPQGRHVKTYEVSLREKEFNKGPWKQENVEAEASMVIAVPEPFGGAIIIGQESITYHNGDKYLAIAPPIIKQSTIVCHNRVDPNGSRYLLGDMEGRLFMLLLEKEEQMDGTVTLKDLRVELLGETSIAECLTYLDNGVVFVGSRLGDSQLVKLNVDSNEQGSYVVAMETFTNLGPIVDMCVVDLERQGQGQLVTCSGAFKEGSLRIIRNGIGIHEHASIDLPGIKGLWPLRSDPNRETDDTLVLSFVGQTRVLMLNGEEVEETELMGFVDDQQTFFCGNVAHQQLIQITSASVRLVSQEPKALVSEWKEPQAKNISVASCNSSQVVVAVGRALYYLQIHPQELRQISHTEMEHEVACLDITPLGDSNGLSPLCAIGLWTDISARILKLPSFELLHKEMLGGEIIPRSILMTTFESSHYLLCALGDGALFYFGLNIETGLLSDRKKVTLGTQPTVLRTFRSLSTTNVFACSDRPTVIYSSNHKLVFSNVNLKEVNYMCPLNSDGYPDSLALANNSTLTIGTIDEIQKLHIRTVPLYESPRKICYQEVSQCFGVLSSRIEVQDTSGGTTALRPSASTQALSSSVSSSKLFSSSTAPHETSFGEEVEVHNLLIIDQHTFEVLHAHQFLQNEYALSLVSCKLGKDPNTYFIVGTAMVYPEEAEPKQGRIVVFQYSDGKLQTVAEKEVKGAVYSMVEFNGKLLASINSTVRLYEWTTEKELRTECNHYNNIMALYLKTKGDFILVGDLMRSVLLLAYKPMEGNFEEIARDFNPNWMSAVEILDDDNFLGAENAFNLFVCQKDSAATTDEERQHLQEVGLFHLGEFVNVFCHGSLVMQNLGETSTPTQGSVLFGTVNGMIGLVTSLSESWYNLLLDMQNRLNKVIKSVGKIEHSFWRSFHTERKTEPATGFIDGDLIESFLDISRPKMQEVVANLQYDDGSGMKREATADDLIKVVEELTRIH
Procedure, shortened: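 Signal was the ratio of 520 nm to 490 nm fluorescence, measured after a 70 μs delay that reduced background.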

[1] = label-free quantitative MS, replicate values
[2] = normalised to DMSO = 1, replicate values
[3] = compound concentration 0.468 nM

SMILES: CCC(CO)Nc1nc(NCc2ccc(-c3ccccn3)cc2)c2ncn(C(C)C)c2n1 (stereo not shown) [CR8, reference compound]
- CDK13 peptide count (CDK13; [1]): 225.708 and 137.684
- CDK13 peptide count (DMSO-normalised) (CDK13; [2]): 0.3358 and 0.2116
- viability assay signal (normalized) (HEK293T cells; 2 nM, + MLN4924): 1.107 and 1.008
- viability assay signal (normalized) (HEK293T cells; 2 nM, without MLN4924): 1.041 and 1.037
- viability assay signal (normalized) (HEK293T cells; 4.69 nM, + MLN4924): 1.279 and 1.055
- viability assay signal (normalized) (HEK293T cells; 4.69 nM, without MLN4924): 1.03 and 1.007
- viability assay signal (normalized) (HEK293T cells; 11 nM, + MLN4924): 1.009 and 1.091
- viability assay signal (normalized) (HEK293T cells; 11 nM, without MLN4924): 1.0171 and 1.083
- viability assay signal (normalized) (HEK293T cells; 25.7 nM, + MLN4924): 1.13 and 1.18
- viability assay signal (normalized) (HEK293T cells; 25.7 nM, without MLN4924): 0.9174 and 1.057
- viability assay signal (normalized) (HEK293T cells; 141 nM, + MLN4924): 1.076 and 1.102
- viability assay signal (normalized) (HEK293T cells; 141 nM, without MLN4924): 0.4857 and 0.5122
- viability assay signal (normalized) (HEK293T cells; 331 nM, + MLN4924): 0.8705 and 0.873
- viability assay signal (normalized) (HEK293T cells; 331 nM, without MLN4924): 0.3951 and 0.3542
- viability assay signal (normalized) (HEK293T cells; 4270 nM, + MLN4924): 0.4449 and 0.4383
- viability assay signal (normalized) (HEK293T cells; 4270 nM, without MLN4924): 0.4332 and 0.4197
- viability assay signal (normalized) (HEK293T cells; 10000 nM, + MLN4924): 0.4134 and 0.5002
- viability assay signal (normalized) (HEK293T cells; 10000 nM, without MLN4924): 0.424 and 0.4316
- EC50 (HEK293T cells; Supplementary Fig. 5, HEK293T, CellTiter Glo, 72h, pre-treatment with 100 nM MLN4924, read-out: Viability EC50, with MLN4924): 519 nM
- EC50 (HEK293T cells; Supplementary Fig. 5, HEK293T, CellTiter Glo, 72h, read-out: Viability EC50, no MLN4924): 78 nM
- EC50 (HEK293T cells; Supplementary Table 2, HEK293T viability, 72 h, compound alone, read-out: Cellular assays EC50): 159 nM
- Toxicity rescue (HEK293T cells; Supplementary Table 2, MLN4924-mediated cytotoxicity rescue, 10 µM used where n.d.): 342%
- CDK12 peptide count (CDK12; [1]): 540.299 and 612.59
- CDK12 peptide count (DMSO-normalised) (CDK12; [2]): 0.6003 and 0.6327
- TR-FRET signal, individual replicate (CDK12–cyclin K and DDB1; [3]): 0.3192 and 0.333 and 0.3266 and 0.1622 and 0.1822 and 0.1545 and 0.1541
- TR-FRET signal at compound concentration 0.468 nM (CDK12–cyclin K and DDB1; compound concentration 0.468 nM, raw replicate titration data): 0.3192 and 0.333 and 0.3266 and 0.1622 and 0.1822 and 0.1545 and 0.1541 and 0.2195 and 0.2132 and 0.1986 and 0.2005 and 0.1618 and 0.1794 and 0.2366 and 0.2374 and 0.2769 and 0.2739 and 0.31
- TR-FRET signal at compound concentration 0.468 nM (CDK12–cyclin K and DDB1; compound concentration 0.468 nM, raw titration data): 0.3192 and 0.333 and 0.3266 and 0.1622 and 0.1822 and 0.1545 and 0.1541 and 0.2195 and 0.2132 and 0.1986 and 0.2005 and 0.1618 and 0.1794 and 0.2366 and 0.2374 and 0.2769 and 0.2739 and 0.31
- TR-FRET signal at compound concentration (CDK12–cyclin K and DDB1; [3]): 0.3192 and 0.333 and 0.3266 and 0.1622 and 0.1822 and 0.1545 and 0.1541
- TR-FRET signal, individual replicate (CDK12–cyclin K and DDB1; compound concentration 2.16 nM): 0.4573 and 0.4311 and 0.4305 and 0.2659 and 0.27 and 0.2373 and 0.2241
- TR-FRET signal at compound concentration 2.16 nM (CDK12–cyclin K and DDB1; compound concentration 2.16 nM, raw replicate titration data): 0.4573 and 0.4311 and 0.4305 and 0.2659 and 0.27 and 0.2373 and 0.2241 and 0.3119 and 0.3007 and 0.2892 and 0.2693 and 0.2407 and 0.2691 and 0.3343 and 0.3434 and 0.3949 and 0.3941 and 0.4244
- TR-FRET signal at compound concentration 2.16 nM (CDK12–cyclin K and DDB1; compound concentration 2.16 nM, raw titration data): 0.4573 and 0.4311 and 0.4305 and 0.2659 and 0.27 and 0.2373 and 0.2241 and 0.3119 and 0.3007 and 0.2892 and 0.2693 and 0.2407 and 0.2691 and 0.3343 and 0.3434 and 0.3949 and 0.3941 and 0.4244
- TR-FRET signal at compound concentration (CDK12–cyclin K and DDB1; compound concentration 2.16 nM): 0.4573 and 0.4311 and 0.4305 and 0.2659 and 0.27 and 0.2373 and 0.2241
- TR-FRET signal, individual replicate (CDK12–cyclin K and DDB1; compound concentration 3.6 nM): 0.7291 and 0.6022 and 0.6555 and 0.4637 and 0.4981 and 0.4299 and 0.4143 and 0.532
- TR-FRET signal at compound concentration 3.6 nM (CDK12–cyclin K and DDB1; compound concentration 3.6 nM, raw replicate titration data): 0.7291 and 0.6022 and 0.6555 and 0.4637 and 0.4981 and 0.4299 and 0.4143 and 0.532 and 0.5274 and 0.5046 and 0.4937 and 0.4479 and 0.5082 and 0.5733 and 0.5902 and 0.6794 and 0.6674 and 0.7173
